System: phenylbenzoquinone-induced writhing
Assay: phenylbenzoquinone-induced writhing test in mice (analgesic activity)
Format: in vivo
Settings: ratio of activity relative to the parent NSAID; oral gavage 1 hour prior to phenylbenzoquinone i.p.
Method: The phenylbenzoquinone-induced writhing test in mice was used to measure analgesic activity. The ability of the compounds to inhibit phenylbenzoquinone-induced writhing in mice was measured using the method of Siegmund et al., Proc. Soc. […] Male CD-1 mice (Charles River Laboratories, Wilmington, Mass.) weighing 20-25 g were fasted overnight. Vehicle or compounds were administered by oral gavage 1 hour prior to i.p. injection of 2 mg/kg of phenylbenzoquinone. In the case of a nitric oxide adduct being given in combination with a NSAID, the nitric oxide adduct was administered immediately before the NSAID. Five minutes after the i.p. injection of phenylbenzoquinone, the number of writhes in a 5 minute period was counted.

Point of comparison: `CC(C(=O)O)c1ccc(-c2ccccc2)c(F)c1` (stereo not drawn) [Flurbiprofen, reference compound], “Relative Activity Analgesia” value 1. Against it:
- 4-O-Nitroso-4-methyl-1-(3-benzoyl-α-methylbenzeneacetic Acid) Pentyl Ester [Example 5] — higher, 1.1
- CC(C(=O)OCCCCON=O)c1cccc(C(=O)c2ccccc2)c1 (stereo not drawn) [Example 4, 4-O-Nitroso-1-(3-benzoyl-α-methylbenzeneacetic Acid) Butyl Ester] — higher, 1.6
- CC(C(=O)OCCC(C)(C)SN=O)c1cccc(C(=O)c2ccccc2)c1 (stereo not drawn) [Example 6, 3-S-Nitroso-3-methyl-1-(3-benzoyl-α-methylbenzeneacetic Acid) Butyl Ester] — the same, 1
- COc1ccc2c(c1)c(CC(=O)OCCCCON=O)c(C)n2C(=O)c1ccc(Cl)cc1 [Example 8] — the same, 1
- CC(C(=O)OCCCCON=O)c1ccc(-c2ccccc2)c(F)c1 (stereo not drawn) [Example 13, 4-O-Nitroso-1-(2-Fluoro-α-methyl-biphenylacetic Acid) Butyl Ester] — lower, 0.31
- CC(C(=O)OCc1ccc(CON=O)cc1)c1cccc(C(=O)c2ccccc2)c1 (stereo not drawn) [Example 16, 4O-Nitroso-hydroxymethylene-(1-(3-benzoyl-α-methylbenzeneacetic Acid)) Benzyl Ester] — higher, 1.1
- COc1ccc2c(c1)c(CC(=O)O)c(C)n2C(=O)c1ccc(Cl)cc1 [Indomethacin, reference compound] — the same, 1
- CN1C(C(=O)Nc2ccccn2)=C(O)c2ccccc2S1(=O)=O [Piroxicam, reference compound] — the same, 1

System: carrageenin paw edema
Assay: rat paw edema test (antiinflammatory activity)
Format: in vivo, rats
Settings: ratio of activity relative to the parent NSAID; oral gavage one hour prior to carrageenin, paw volume after three hours
Method: The rat paw edema test was used to measure antiinflammatory activity. The rat paw edema test was performed according to the method of Winter et al., Proc. Soc. […] Male Sprague-Dawley rats (250-275 g) were fasted overnight and dosed by oral gavage with vehicle or suspensions of compound one hour prior to the subplantar injection of 50 μl of 1% suspension of carrageenin. Three hours later, the paw volume was measured and compared with the initial volume measured immediately after carrageenin injection.

Point of comparison: `CC(C)Cc1ccc(C(C)C(=O)OCCC(C)(C)SN=O)cc1` (stereo not drawn) [Example 11, 3-S-Nitroso-3-methyl-1-(α-methyl-4-(2-methylpropyl)benzeneacetic Acid) Butyl Ester], “Relative Activity Antiinflammation” value 1. Against it:
- 4-O-Nitroso-1-(α-methyl-4-(2-methylpropyl)benzeneacetic Acid) Butyl Ester [Example 12] — the same, 1
- CC(C(=O)OCCCCON=O)c1cccc(C(=O)c2ccccc2)c1 (stereo not drawn) [Example 4, 4-O-Nitroso-1-(3-benzoyl-α-methylbenzeneacetic Acid) Butyl Ester] — lower, 0.58
- COc1ccc2c(c1)c(CC(=O)OCCCCON=O)c(C)n2C(=O)c1ccc(Cl)cc1 [Example 8] — the same, 1
- CC(C(=O)OCCCCON=O)c1ccc(-c2ccccc2)c(F)c1 (stereo not drawn) [Example 13, 4-O-Nitroso-1-(2-Fluoro-α-methyl-biphenylacetic Acid) Butyl Ester] — higher, 1.83
- CC(C(=O)O)c1ccc(-c2ccccc2)c(F)c1 (stereo not drawn) [Flurbiprofen, reference compound] — the same, 1
- COc1ccc2c(c1)c(CC(=O)O)c(C)n2C(=O)c1ccc(Cl)cc1 [Indomethacin, reference compound] — the same, 1

System: gastric lesion
Assay: rat gastric lesion test, acute (single dose)
Format: in vivo, rats
Settings: male, Sprague Dawley, rat, in vivo, po, 18 h
Method: (§1) The rat gastric lesion test (Kitagawa et al., J. Pharmacol. Exp.Ther., 253:1133-1137, 1990; Al-Ghamdi et al., J. Int. Med. Res., 19: 2242, 1991) was used to evaluate the potential of compounds to produce gastric lesion. Male Sprague Dawley rats (Charles River Laboratories, Wilmington, Mass.) weighing 230-250 g were used for the experiments. The rats were housed with laboratory chow and water ad libitum prior to the study. The rats were fasted for 24-30 hours with free access to water and then dosed by oral gavage with vehicle or with drugs given at a volume of 0.5 mL/100 g. For the unmodified NSAIDs being given in combination with a nitric oxide adduct (NO-adduct), the NO-adduct was administered by oral gavage immediately prior to the administration of NSAID by oral gavage. Food was withheld for 18 hours after the initial dosing. For acute studies, rats were euthanized by CO2 eighteen hours after dosing and the stomachs were dissected. For the multiple dosing studies, the results of which are in Table 3, food was given eighteen hours after the first dose and the rats were maintained on food and water ad libitum while receiving a single daily dose for the remainder of the experiment. […] The stomachs were dissected along the greater curvature, washed with a directed stream of 0.9% saline and pinned open on a sylgard based petridish for examination of the hemorrhagic lesion. Gastric lesion score was expressed in mm and calculated by summing the length of each lesion.

Point of comparison: `CC(C(=O)O)c1ccc(-c2ccccc2)c(F)c1` (stereo not drawn) [Flurbiprofen, reference compound], “Relative Activity Gastric Lesion” value 1. Against it:
- COc1ccc2c(c1)c(CC(=O)O)c(C)n2C(=O)c1ccc(Cl)cc1 [Indomethacin, reference compound] — the same, 1
- CN1C(C(=O)Nc2ccccn2)=C(O)c2ccccc2S1(=O)=O [Piroxicam, reference compound] — the same, 1

Same assay, conditions: rat, in vivo, po

Point of comparison: `CC(C(=O)OCCCCON=O)c1cccc(C(=O)c2ccccc2)c1` (stereo not drawn) [Example 4, 4-O-Nitroso-1-(3-benzoyl-α-methylbenzeneacetic Acid) Butyl Ester], “Relative Activity Gastric Lesion” value 0.03. Against it:
- COc1ccc2c(c1)c(CC(=O)OCCCCON=O)c(C)n2C(=O)c1ccc(Cl)cc1 [Example 8] — higher, 0.08
- CC(C(=O)OCCCCON=O)c1ccc(-c2ccccc2)c(F)c1 (stereo not drawn) [Example 13, 4-O-Nitroso-1-(2-Fluoro-α-methyl-biphenylacetic Acid) Butyl Ester] — higher, 0.5

Same assay, conditions: ratio of activity relative to the parent NSAID; oral gavage, fasted rats

“4-O-Nitroso-1-(α-methyl-4-(2-methylpropyl)benzeneacetic Acid) Butyl Ester [Example 12]” was tested, and the “Relative Activity Gastric Lesion” value was under 0.03.
For `CC(C)Cc1ccc(C(C)C(=O)OCCC(C)(C)SN=O)cc1` (stereo not drawn) [Example 11, 3-S-Nitroso-3-methyl-1-(α-methyl-4-(2-methylpropyl)benzeneacetic Acid) Butyl Ester], the “Relative Activity Gastric Lesion” value was under 0.05.

System: gastric lesion
Assay: rat gastric lesion test, multiple dosing studies
Format: in vivo, rats
Settings: 4 days; fasted 24-30 hours before and 4 hours after first dosing; Ketoprofen 10, Example 4 14, Example 6 15 mg/kg
Method: as §1, with “Food was withheld for 18 hours after the initial dosing.” left out, “For the multiple dosing studies, the results of which are in Table 3, food was given eighteen hours after the first dose and the rats were maintained on food and water ad libitum while receiving a single daily dose for the remainder of the experiment.” left out

In the case of `CC(C(=O)OCCC(C)(C)SN=O)c1cccc(C(=O)c2ccccc2)c1` (stereo not drawn) [Example 6, 3-S-Nitroso-3-methyl-1-(3-benzoyl-α-methylbenzeneacetic Acid) Butyl Ester], the “Relative Gastric Lesion Activity” value is reported as “++ (21-40% of the gastric toxcity induced by the parent NSAID = ++)”.

Same assay, conditions: 7 days; fasted 24-30 hours before and 18 hours after first dosing; Ibuprofen 30, Example 11 50, Example 12 45 mg/kg

“4-O-Nitroso-1-(α-methyl-4-(2-methylpropyl)benzeneacetic Acid) Butyl Ester [Example 12]” was tested, and the “Relative Gastric Lesion Activity” value was “+ (1-20% of the gastric toxcity induced by the parent NSAID = +)”.
For `CC(C)Cc1ccc(C(C)C(=O)OCCC(C)(C)SN=O)cc1` (stereo not drawn) [Example 11, 3-S-Nitroso-3-methyl-1-(α-methyl-4-(2-methylpropyl)benzeneacetic Acid) Butyl Ester], the “Relative Gastric Lesion Activity” value was “+ (1-20% of the gastric toxcity induced by the parent NSAID = +)”.
